Experimental findings from article PMC4081560 (PLoS ONE, 2014) are described below.

The test system of experiment [1] is K/2785 virus (A/Korea/2785/2009). The format is cell-based, 2009 pandemic H1N1 oseltamivir-resistant variant.
Experiment [2] addresses K/2785 virus (A/Korea/2785/2009) neuraminidase (NA H275Y) (Influenza A virus, UniProt C5MQP8, H275Y). The format is biochemical, 2009 pandemic H1N1 oseltamivir-resistant variant.

What is called EC50 is the midpoint of the concentration-response curve. Consider `NC(=O)c1nc(F)cnc1O` [Favipiravir, 6-fluoro-3-hydroxy-2-pyrazinecarboxamide], for which, in experiment [1], it took 10.8 µM to reach a half-maximal effect (EC50).
Usually IC50 stands for the midpoint of a concentration-inhibition curve. A lower IC50 goes with greater potency in that assay. On to `CCC(CC)[C@H](NC(C)=O)[C@@H]1[C@H](O)[C@@H](C(=O)O)C[C@H]1N=C(N)N` [Peramivir], for which, in experiment [2], 29.8 nM corresponded to half-maximal inhibition (IC50) and the “higher concentration needed compared with K/09 virus” value is recorded as “more than 20 fold”.
